PubChem BioAssay (NCI)
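Cultured in 96-well plates, cells were exposed to test compound for 48 hours across five concentrations. At the TGI there is no net growth.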

How the values were obtained:
Experiment in all cases: inhibition of tumour cell growth, NCI panel, 48 h
786-0 renal = test system: 786-0 renal
A549 NSCLC = test system: A549 NSCLC
ACHN renal = test system: ACHN renal
BT-549 breast = test system: BT-549 breast
CAKI-1 renal = test system: CAKI-1 renal
CCRF-CEM leukemia = test system: CCRF-CEM leukemia
COLO 205 colon = test system: COLO 205 colon
DU-145 prostate = test system: DU-145 prostate
EKVX NSCLC = test system: EKVX NSCLC
HCC-2998 colon = test system: HCC-2998 colon
HCT-116 colon = test system: HCT-116 colon
HCT-15 colon = test system: HCT-15 colon
HL-60(TB) leukemia = test system: HL-60(TB) leukemia
HOP-62 NSCLC = test system: HOP-62 NSCLC
HOP-92 NSCLC = test system: HOP-92 NSCLC
HS 578T breast = test system: HS 578T breast
HT29 colon = test system: HT29 colon
IGROV1 ovarian = test system: IGROV1 ovarian
K-562 leukemia = test system: K-562 leukemia
KM12 colon = test system: KM12 colon
LOX IMVI melanoma = test system: LOX IMVI melanoma
M14 melanoma = test system: M14 melanoma
MALME-3M melanoma = test system: MALME-3M melanoma
MCF7 breast = test system: MCF7 breast
MDA-MB-231 breast = test system: MDA-MB-231 breast
MDA-MB-435 = test system: MDA-MB-435
MDA-N = test system: MDA-N
MOLT-4 leukemia = test system: MOLT-4 leukemia
NCI-H226 lung = test system: NCI-H226 lung
NCI-H23 lung = test system: NCI-H23 lung
NCI-H460 lung = test system: NCI-H460 lung
NCI-H522 lung = test system: NCI-H522 lung
NCI/ADR-RES ovarian = test system: NCI/ADR-RES ovarian
OVCAR-3 ovarian = test system: OVCAR-3 ovarian
OVCAR-4 ovarian = test system: OVCAR-4 ovarian
OVCAR-5 ovarian = test system: OVCAR-5 ovarian
OVCAR-8 ovarian = test system: OVCAR-8 ovarian
PC-3 prostate = test system: PC-3 prostate
RPMI-8226 leukemia = test system: RPMI-8226 leukemia
RXF 393 renal = test system: RXF 393 renal
SF-268 CNS = test system: SF-268 CNS
SF-295 CNS = test system: SF-295 CNS
SK-MEL-2 melanoma = test system: SK-MEL-2 melanoma
SK-MEL-5 melanoma = test system: SK-MEL-5 melanoma
SK-OV-3 ovarian = test system: SK-OV-3 ovarian
SN12C renal = test system: SN12C renal
SNB-19 CNS = test system: SNB-19 CNS
SNB-75 CNS = test system: SNB-75 CNS
SW-620 colon = test system: SW-620 colon
T-47D breast = test system: T-47D breast
TK-10 renal = test system: TK-10 renal
U251 CNS = test system: U251 CNS
UACC-257 melanoma = test system: UACC-257 melanoma
UACC-62 melanoma = test system: UACC-62 melanoma
UO-31 renal = test system: UO-31 renal

Measured: TGI

COC(=O)[C@H](Cc1c[nH]c2ccccc12)NC(=O)OCC1OC(n2cc(C)c(=O)[nH]c2=O)CC1N=[N+]=[N-] (stereo not given in full)
> 100 µM: 786-0 renal | A549 NSCLC | ACHN renal | BT-549 breast | CAKI-1 renal | CCRF-CEM leukemia | COLO 205 colon | DU-145 prostate | EKVX NSCLC | HCC-2998 colon | HCT-116 colon | HCT-15 colon | HL-60(TB) leukemia | HOP-62 NSCLC | HOP-92 NSCLC | HS 578T breast | HT29 colon | IGROV1 ovarian | K-562 leukemia | KM12 colon | LOX IMVI melanoma | M14 melanoma | MALME-3M melanoma | MCF7 breast | MDA-MB-231 breast | MDA-MB-435 | MDA-N | MOLT-4 leukemia | NCI-H226 lung | NCI-H23 lung | NCI-H460 lung | NCI-H522 lung | NCI/ADR-RES ovarian | OVCAR-3 ovarian | OVCAR-4 ovarian | OVCAR-5 ovarian | OVCAR-8 ovarian | PC-3 prostate | RPMI-8226 leukemia | RXF 393 renal | SF-268 CNS | SF-295 CNS | SK-MEL-2 melanoma | SK-MEL-5 melanoma | SK-OV-3 ovarian | SN12C renal | SNB-19 CNS | SNB-75 CNS | SW-620 colon | T-47D breast | TK-10 renal | U251 CNS | UACC-257 melanoma | UACC-62 melanoma | UO-31 renal
